{"source": "ChEMBL document CHEMBL3046257", "about": "“Response of sweet maize (Zea mays L.) hybrids to halosulfuron” (Crop Prot, 2008)", "assay_type_in_all_cases": "organism-based", "key": {"Zea mays [1]": {"system": "Zea mays", "assay": "Toxicity in Zea mays GG446 (maize) assessed as plant height at 25 g ai/ha applied shortly post-emergence at three to five-leaf stage using backpack sprayer measured after 21 days (reference value: 85 cm)", "settings": "in vivo, other, 504 h"}, "Zea mays [2]": {"system": "Zea mays", "assay": "Toxicity in Zea mays GH2041 (maize) assessed as marketable yield at 25 g ai/ha applied shortly post-emergence at three to five-leaf stage using backpack sprayer (reference value: 12.2 T/ha )", "settings": "in vivo, other"}, "Zea mays [3]": {"system": "Zea mays", "assay": "Toxicity in Zea mays GH2298 (maize) assessed as marketable yield at 25 g ai/ha applied shortly post-emergence at three to five-leaf stage using backpack sprayer (reference value: 16.9 T/ha )", "settings": "in vivo, other"}, "Zea mays [4]": {"system": "Zea mays", "assay": "Toxicity in Zea mays GH2298 (maize) assessed as cob size at 25 g ai/ha applied shortly post-emergence at three to five-leaf stage using backpack sprayer (reference value: 307 g)", "settings": "in vivo, other"}, "Zea mays [5]": {"system": "Zea mays", "assay": "Toxicity in Zea mays Empire (maize) assessed as plant height at 25 g ai/ha applied shortly post-emergence at three to five-leaf stage using backpack sprayer measured after 21 days (Rvb =73 cm)", "settings": "in vivo, other, 504 h"}, "Zea mays [6]": {"system": "Zea mays", "assay": "Toxicity in Zea mays Empire (maize) assessed as reduction in marketable yield at 50 g ai/ha applied shortly post-emergence at three to five-leaf stage using backpack sprayer", "parameters": "scale not given: the % may be the effect or the level left", "settings": "in vivo, other"}, "Zea mays [7]": {"system": "Zea mays", "assay": "Toxicity in Zea mays GH2041 (maize) assessed as cob size at 50 g ai/ha applied shortly post-emergence at three to five-leaf stage using backpack sprayer (reference value: 285 g)", "settings": "in vivo, other"}, "Zea mays [8]": {"system": "Zea mays", "assay": "Toxicity in Zea mays GG214 (maize) assessed as cob size at 25 g ai/ha applied shortly post-emergence at three to five-leaf stage using backpack sprayer (reference value: 292 g)", "settings": "in vivo, other"}, "Zea mays [9]": {"system": "Zea mays", "assay": "Toxicity in Zea mays GG446 (maize) assessed as cob size at 25 g ai/ha applied shortly post-emergence at three to five-leaf stage using backpack sprayer (reference value: 379 g)", "settings": "in vivo, other"}, "Zea mays [10]": {"system": "Zea mays", "assay": "Toxicity in Zea mays GG214 (maize) assessed as visible injury at 25 g ai/ha applied shortly post-emergence at three to five-leaf stage using backpack sprayer measured after 7 days", "settings": "in vivo, other, 168 h"}, "Zea mays [11]": {"system": "Zea mays", "assay": "Toxicity in Zea mays Empire (maize) assessed as reduction in marketable yield at 25 g ai/ha applied shortly post-emergence at three to five-leaf stage using backpack sprayer", "parameters": "scale not given: the % may be the effect or the level left", "settings": "in vivo, other"}, "Zea mays [12]": {"system": "Zea mays", "assay": "Toxicity in Zea mays GH2041 (maize) assessed as visible injury at 25 g ai/ha applied shortly post-emergence at three to five-leaf stage using backpack sprayer measured after 14 days", "settings": "in vivo, other, 336 h"}, "Zea mays [13]": {"system": "Zea mays", "assay": "Toxicity in Zea mays Empire (maize) assessed as visible injury at 25 g ai/ha applied shortly post-emergence at three to five-leaf stage using backpack sprayer measured after 28 days", "settings": "in vivo, other, 672 h"}, "Zea mays [14]": {"system": "Zea mays", "assay": "Toxicity in Zea mays GH2041 (maize) assessed as cob size at 25 g ai/ha applied shortly post-emergence at three to five-leaf stage using backpack sprayer (reference value: 285 g)", "settings": "in vivo, other"}, "Zea mays [15]": {"system": "Zea mays", "assay": "Toxicity in Zea mays GSS9299 (maize) assessed as plant height at 25 g ai/ha applied shortly post-emergence at three to five-leaf stage using backpack sprayer measured after 21 days (Rvb =69 cm)", "settings": "in vivo, other, 504 h"}, "Zea mays [16]": {"system": "Zea mays", "assay": "Toxicity in Zea mays GSS9299 (maize) assessed as visible injury at 50 g ai/ha applied shortly post-emergence at three to five-leaf stage using backpack sprayer measured after 28 days", "settings": "in vivo, other, 672 h"}, "Zea mays [17]": {"system": "Zea mays", "assay": "Toxicity in Zea mays GG446 (maize) assessed as visible injury at 25 g ai/ha applied shortly post-emergence at three to five-leaf stage using backpack sprayer measured after 7 days", "settings": "in vivo, other, 168 h"}, "Zea mays [18]": {"system": "Zea mays", "assay": "Toxicity in Zea mays GH2298 (maize) assessed as visible injury at 50 g ai/ha applied shortly post-emergence at three to five-leaf stage using backpack sprayer measured after 14 days", "settings": "in vivo, other, 336 h"}, "Zea mays [19]": {"system": "Zea mays", "assay": "Toxicity in Zea mays GH2547 (maize) assessed as plant height at 25 g ai/ha applied shortly post-emergence at three to five-leaf stage using backpack sprayer measured after 21 days (Rvb =80 cm)", "settings": "in vivo, other, 504 h"}, "Zea mays [20]": {"system": "Zea mays", "assay": "Toxicity in Zea mays GH2547 (maize) assessed as visible injury at 25 g ai/ha applied shortly post-emergence at three to five-leaf stage using backpack sprayer measured after 28 days", "settings": "in vivo, other, 672 h"}, "Zea mays [21]": {"system": "Zea mays", "assay": "Toxicity in Zea mays GG446 (maize) assessed as visible injury at 50 g ai/ha applied shortly post-emergence at three to five-leaf stage using backpack sprayer measured after 14 days", "settings": "in vivo, other, 336 h"}, "Zea mays [22]": {"system": "Zea mays", "assay": "Toxicity in Zea mays GH2041 (maize) assessed as visible injury at 50 g ai/ha applied shortly post-emergence at three to five-leaf stage using backpack sprayer measured after 14 days", "settings": "in vivo, other, 336 h"}, "Zea mays [23]": {"system": "Zea mays", "assay": "Toxicity in Zea mays GH2298 (maize) assessed as plant height at 25 g ai/ha applied shortly post-emergence at three to five-leaf stage using backpack sprayer measured after 21 days (Rvb =80 cm)", "settings": "in vivo, other, 504 h"}, "Zea mays [24]": {"system": "Zea mays", "assay": "Toxicity in Zea mays GH2684 (maize) assessed as visible injury at 25 g ai/ha applied shortly post-emergence at three to five-leaf stage using backpack sprayer measured after 7 days", "settings": "in vivo, other, 168 h"}, "Zea mays [25]": {"system": "Zea mays", "assay": "Toxicity in Zea mays Empire (maize) assessed as visible injury at 50 g ai/ha applied shortly post-emergence at three to five-leaf stage using backpack sprayer measured after 14 days", "settings": "in vivo, other, 336 h"}, "Zea mays [26]": {"system": "Zea mays", "assay": "Toxicity in Zea mays GH2684 (maize) assessed as visible injury at 25 g ai/ha applied shortly post-emergence at three to five-leaf stage using backpack sprayer measured after 28 days", "settings": "in vivo, other, 672 h"}, "Zea mays [27]": {"system": "Zea mays", "assay": "Toxicity in Zea mays GH2684 (maize) assessed as plant height at 50 g ai/ha applied shortly post-emergence at three to five-leaf stage using backpack sprayer measured after 21 days (Rvb =73 cm)", "settings": "in vivo, other, 504 h"}, "Zea mays [28]": {"system": "Zea mays", "assay": "Toxicity in Zea mays GH2298 (maize) assessed as visible injury at 25 g ai/ha applied shortly post-emergence at three to five-leaf stage using backpack sprayer measured after 7 days", "settings": "in vivo, other, 168 h"}, "Zea mays [29]": {"system": "Zea mays", "assay": "Toxicity in Zea mays GH2547 (maize) assessed as cob size at 50 g ai/ha applied shortly post-emergence at three to five-leaf stage using backpack sprayer (reference value: 315 g)", "settings": "in vivo, other"}, "Zea mays [30]": {"system": "Zea mays", "assay": "Toxicity in Zea mays GSS9299 (maize) assessed as visible injury at 25 g ai/ha applied shortly post-emergence at three to five-leaf stage using backpack sprayer measured after 28 days", "settings": "in vivo, other, 672 h"}, "Zea mays [31]": {"system": "Zea mays", "assay": "Toxicity in Zea mays GSS9299 (maize) assessed as cob size at 50 g ai/ha applied shortly post-emergence at three to five-leaf stage using backpack sprayer (reference value: 292 g)", "settings": "in vivo, other"}, "Zea mays [32]": {"system": "Zea mays", "assay": "Toxicity in Zea mays GH2298 (maize) assessed as visible injury at 25 g ai/ha applied shortly post-emergence at three to five-leaf stage using backpack sprayer measured after 14 days", "settings": "in vivo, other, 336 h"}, "Zea mays [33]": {"system": "Zea mays", "assay": "Toxicity in Zea mays GG214 (maize) assessed as visible injury at 25 g ai/ha applied shortly post-emergence at three to five-leaf stage using backpack sprayer measured after 28 days", "settings": "in vivo, other, 672 h"}}}
{"smiles": "COc1cc(OC)nc(NC(=O)NS(=O)(=O)c2c(C(=O)O)c(Cl)nn2C)n1", "note": "[HALOSULFURON]", "values": [{"measurement": "Activity", "setting": "Zea mays [1]", "value": 81, "unit": "cm"}, {"measurement": "Crop_yield", "setting": "Zea mays [2]", "value": 11.8, "unit": "tons/ha"}, {"measurement": "Crop_yield", "setting": "Zea mays [3]", "value": 16.4, "unit": "tons/ha"}, {"measurement": "Activity", "setting": "Zea mays [4]", "value": 315, "unit": "g"}, {"measurement": "Activity", "setting": "Zea mays [5]", "value": 69, "unit": "cm"}, {"measurement": "Activity", "setting": "Zea mays [6]", "value": 21, "unit": "%"}, {"measurement": "Activity", "setting": "Zea mays [7]", "value": 267, "unit": "g"}, {"measurement": "Activity", "setting": "Zea mays [8]", "value": 293, "unit": "g"}, {"measurement": "Activity", "setting": "Zea mays [9]", "value": 370, "unit": "g"}, {"measurement": "Activity", "setting": "Zea mays [10]", "value": 1, "unit": "%"}, {"measurement": "Activity", "setting": "Zea mays [11]", "value": 14, "unit": "%"}, {"measurement": "Activity", "setting": "Zea mays [12]", "value": 1, "unit": "%"}, {"measurement": "Activity", "setting": "Zea mays [13]", "value": 0, "unit": "%"}, {"measurement": "Activity", "setting": "Zea mays [14]", "value": 273, "unit": "g"}, {"measurement": "Activity", "setting": "Zea mays [15]", "value": 68, "unit": "cm"}, {"measurement": "Activity", "setting": "Zea mays [16]", "value": 1, "unit": "%"}, {"measurement": "Activity", "setting": "Zea mays [17]", "value": 0, "unit": "%"}, {"measurement": "Activity", "setting": "Zea mays [18]", "value": 4, "unit": "%"}, {"measurement": "Activity", "setting": "Zea mays [19]", "value": 78, "unit": "cm"}, {"measurement": "Activity", "setting": "Zea mays [20]", "value": 0, "unit": "%"}, {"measurement": "Activity", "setting": "Zea mays [21]", "value": 0, "unit": "%"}, {"measurement": "Activity", "setting": "Zea mays [22]", "value": 2, "unit": "%"}, {"measurement": "Activity", "setting": "Zea mays [23]", "value": 76, "unit": "cm"}, {"measurement": "Activity", "setting": "Zea mays [24]", "value": 4, "unit": "%"}, {"measurement": "Activity", "setting": "Zea mays [25]", "value": 6, "unit": "%"}, {"measurement": "Activity", "setting": "Zea mays [26]", "value": 0, "unit": "%"}, {"measurement": "Activity", "setting": "Zea mays [27]", "value": 73, "unit": "cm"}, {"measurement": "Activity", "setting": "Zea mays [28]", "value": 3, "unit": "%"}, {"measurement": "Activity", "setting": "Zea mays [29]", "value": 312, "unit": "g"}, {"measurement": "Activity", "setting": "Zea mays [30]", "value": 0, "unit": "%"}, {"measurement": "Activity", "setting": "Zea mays [31]", "value": 297, "unit": "g"}, {"measurement": "Activity", "setting": "Zea mays [32]", "value": 2, "unit": "%"}, {"measurement": "Activity", "setting": "Zea mays [33]", "value": 0, "unit": "%"}]}
